Laboratory results published in patent US11007155B2, “Method for producing a sea urchin extract enriched with 1,4-polyhydroxylated naphthoquinones with antimicrobial and antioxidant activity” (Universidad Técnica Federico Santa María, priority 2016, dated 2021).
Converted amounts (≈) assume the structure as drawn. Like-named read-outs stand apart in the source and are kept apart here. Blank lines part the entries; values can stand above or below the molecule they belong to.

Key:
[1] = DPPH radical capture assay (antioxidant activity)
Source text: The antioxidant activity of EqA is dependent on the concentration of the pigment, the pH and the concentration of calcium. In the absence of calcium, the antioxidant activity is observed only at alkaline pH, but in the presence of calcium, the antioxidant activity is observed at alkaline pH and neutral pH, by the formation of stable semiquinone-calcium complexes (Levedeb et al., Archives of Biochemistry and Biophysics (2003) 413: 191-198). The invention is illustrated in the following examples:
The antioxidant activity of the purified extract and equinochrome A was evaluated by the DPPH radical capture assay (2, 2-diphenyl-1-picryihydracil) (Shankarlal et al., (2011) Am-Euras, J. Sci. Res. 6:178-181).

E. coli = experiment: Antibacterial activity (MIC) against clinical isolates; assay type: cell-based; conditions: Escherichia coli
Source text: (§1) In order to test the antibiotic activity of these compounds, the inventors studied the antibacterial activity, measured as minimum inhibitory concentration (MIC), of the black sea urchin (Tetrapygus niger) extract enriched in equinochrome A (85% purity) and the purified EqA.

Klebsiella oxytica = experiment: as above; assay type: cell-based; conditions: resistant to ampicillin
Source text: as §1

Klebsiella pneumoniae = experiment: as above; assay type: cell-based; conditions: resistant to ampicillin, aztreonam, cephalothin, cefepime, cefotaxime, ceftazidime
Source text: as §1

Pseudomona aeruginosa = experiment: as above; assay type: cell-based
Source text: as §1

S. aureus = experiment: as above; assay type: cell-based; conditions: Staphylococcus aureus, resistant to penicillin
Source text: as §1

[2] = Storage stability of the product; assay type: physicochemical; conditions: stored at −20° C
Source text: The process of the invention begins with spawning, which is induced by injection of KCl (0.5 M) into the perivisceral coelom. The induced urchin females are deposited on a smaller diameter vessel, which contains filtered and sterile seawater, where the eggs are received. The collected eggs are filtered, preferably using a fine sieve of pore size 1/32 inches (0.079375 centimeters) to remove impurities. Afterwards it is washed with filtered and sterile seawater. The excess water is subsequently removed by decanting the eggs. Then the eggs are dried at 60-80° C. for 24-72 hours, and are ground to a fine powder, which is cleaned by passing through a sieve of pore size 1/120 inches (0.021 centimeters). The product is then extracted by mixing the powder with methanol or ethanol at a proportion of 1:30 v/v under constant agitation. It is further filtered to remove the egg debris and evaporated under vacuum at 55° C. to 1/10 of the initial volume. The resulting extract is purified by chromatography with a C18 RP column, elution with 30-40% methanol to extract mainly spinochrome E, and finally an elution with 100% ethanol for the extraction of EqA.

EC50 [1]: 100 µM
SMILES: Cc1c(C)c2c(c(C)c1O)CC[C@@](C)(CCC[C@H](C)CCC[C@H](C)CCCC(C)C)O2 [α-tocoferol, reference compound]

EC50 [1]: 45 µM
SMILES: O=C1O[C@H]([C@@H](O)CO)C(O)=C1O [ascorbic acid, reference compound]

MIC (E. coli; pH 5, pH 5, hemocultivo isolate, antibiotic resistance —): 32 mg/L (≈ 120 µM)
MIC (E. coli; pH 5, pH 5, hemocultivo isolate, resistant to ampicillin, chloramphenicol, cotrimoxazole): 32 mg/L (≈ 120 µM)
MIC (E. coli; pH 5, pH 5, urine isolate, resistant to ampicillin, aztreonam, cefepime, cefotaxime, ceftazidime, ciprofloxacin): 32 mg/L (≈ 120 µM)
MIC (E. coli; pH 7, pH 7, hemocultivo isolate, antibiotic resistance —): > 64 mg/L
MIC (E. coli; pH 7, pH 7, hemocultivo isolate, resistant to ampicillin, chloramphenicol, cotrimoxazole): > 64 mg/L
MIC (E. coli; pH 7, pH 7, urine isolate, resistant to ampicillin, aztreonam, cefepime, cefotaxime, ceftazidime, ciprofloxacin): 64 mg/L (≈ 240 µM)
MIC (Klebsiella oxytica; pH 5, hemocultivo isolate): 64 mg/L (≈ 240 µM)
MIC (Klebsiella oxytica; pH 7, hemocultivo isolate): > 64 mg/L
MIC (Klebsiella pneumoniae; Klebsiella pneumoniae, pH 5, urine isolate, ertapenem, nitrofurantoin, read-out: MIC): 64 mg/L (≈ 240 µM)
MIC (Klebsiella pneumoniae; Klebsiella pneumoniae, pH 7, urine isolate, ertapenem, nitrofurantoin, read-out: MIC): > 64 mg/L
MIC (Klebsiella pneumoniae; pH 5, hemocultivo isolate, ciprofloxacin, chloramphenicol, colistin, cotrimoxazole, gentamicin): 64 mg/L (≈ 240 µM)
MIC (Klebsiella pneumoniae; pH 5, urine isolate, nitrofurantoin): 64 mg/L (≈ 240 µM)
MIC (Klebsiella pneumoniae; pH 7, hemocultivo isolate, ciprofloxacin, chloramphenicol, colistin, cotrimoxazole, gentamicin): >64 mg/L
MIC (Klebsiella pneumoniae; pH 7, urine isolate, nitrofurantoin): >64 mg/L
MIC (Pseudomona aeruginosa; pH 5, pH 5, aspirado traqueal isolate, resistant to ampicillin, aztreonam, cefepime, ceftazidime, imipenem, meropenem): 32 mg/L (≈ 120 µM)
MIC (Pseudomona aeruginosa; pH 5, pH 5, aspirado traqueal isolate, resistant to ampicillin, aztreonam, ceftazidime, imipenem, meropenem): 64 mg/L (≈ 240 µM)
MIC (Pseudomona aeruginosa; pH 5, pH 5, aspirado traqueal isolate, resistant to ampicillin, ciprofloxacin, imipenem, meropenem): 32 mg/L (≈ 120 µM)
MIC (Pseudomona aeruginosa; pH 5, pH 5, cateter isolate, resistant to ampicillin, aztreonam, cefepime, ceftazidime, imipenem, meropenem): 32 mg/L (≈ 120 µM)
MIC (Pseudomona aeruginosa; pH 5, pH 5, hemocultivo isolate, resistant to cefepime, ceftazidime, ciprofloxacin, gentamicin): 32 mg/L (≈ 120 µM)
MIC (Pseudomona aeruginosa; pH 7, pH 7, aspirado traqueal isolate, resistant to ampicillin, aztreonam, cefepime, ceftazidime, imipenem, meropenem): > 64 mg/L
MIC (Pseudomona aeruginosa; pH 7, pH 7, aspirado traqueal isolate, resistant to ampicillin, aztreonam, ceftazidime, imipenem, meropenem): > 64 mg/L
MIC (Pseudomona aeruginosa; pH 7, pH 7, aspirado traqueal isolate, resistant to ampicillin, ciprofloxacin, imipenem, meropenem): > 64 mg/L
MIC (Pseudomona aeruginosa; pH 7, pH 7, cateter isolate, resistant to ampicillin, aztreonam, cefepime, ceftazidime, imipenem, meropenem): > 64 mg/L
MIC (Pseudomona aeruginosa; pH 7, pH 7, hemocultivo isolate, resistant to cefepime, ceftazidime, ciprofloxacin, gentamicin): > 64 mg/L
MIC (S. aureus; pH 5, pH 5, hemocultivo isolate (1st, r13)): 8 mg/L (≈ 30.1 µM)
MIC (S. aureus; pH 5, pH 5, hemocultivo isolate (2nd, r14)): 8 mg/L (≈ 30.1 µM)
MIC (S. aureus; pH 5, pH 5, hemocultivo isolate (3rd, r15)): 8 mg/L (≈ 30.1 µM)
MIC (S. aureus; pH 5, pH 5, hemocultivo isolate, oxacillin, erythromycin, clindamycin, ciprofloxacin): 32 mg/L (≈ 120 µM)
MIC (S. aureus; pH 5, pH 5, isolate from tracheal aspirate): 8 mg/L (≈ 30.1 µM)
MIC (S. aureus; pH 7, pH 7, hemocultivo isolate (1st, r13)): 32 mg/L (≈ 120 µM)
MIC (S. aureus; pH 7, pH 7, hemocultivo isolate (2nd, r14)): 32 mg/L (≈ 120 µM)
MIC (S. aureus; pH 7, pH 7, hemocultivo isolate (3rd, r15)): 32 mg/L (≈ 120 µM)
MIC (S. aureus; pH 7, pH 7, hemocultivo isolate, oxacillin, erythromycin, clindamycin, ciprofloxacin): 32 mg/L (≈ 120 µM)
MIC (S. aureus; pH 7, pH 7, isolate from tracheal aspirate): 32 mg/L (≈ 120 µM)
EC50 [1]: 13 µM
storage stability [2]: high stability for months
SMILES: CCc1c(O)c(O)c2c(c1O)C(=O)C(O)=C(O)C2=O [EqA, 6-ethyl-2,3,5,7,8-pentahydroxy-1,4-naphthoquinone]
antioxidant activity compared with reference antioxidants [1]: greater than the antioxidant activities of α-tocopherol and ascorbic acid
